The numbers were not newly measured in patent US12223643B2, “Machine-learning system for diagnosing disorders and diseases and determining drug responsiveness” (Sanford Burnham Prebys Medical Discovery Institute, priority 2019, dated 2025), which cites them from elsewhere.

The series has as its system bipolar disorder (BPD) patients.

For the molecule `O=C([O-])[O-].[Li+].[Li+]` [Lithium carbonate], the “patients respond to lithium treatment” value is reported as “approximately 35%” and the risk of suicide result is recorded as “reduce the risk of suicide”.
